Assay results reported in patent publication US10273211B2, “Metabolites of N-{4-([6,7-bis(methyloxy)quinolin-4-yl]oxy}phenyl)-N′-(4-fluorophenyl)cyclopropane-1,1-dicarboxamide” (Exelixis, Inc., priority 2013, dated 2019).
Blank lines part the entries; values can stand above or below the molecule they belong to.

Key:
[1] = Metabolite profiling of human urine after [14C] cabozantinib (mass balance study); type: in vivo; settings: single 175 mg oral dose; for presence in pooled urine sample: human urine
Experimental: (§1) The objective of this study was to profile and identify metabolites of cabozantinib in human plasma, urine, and feces.
(§2) The plasma, urine, and fecal samples were collected from the 8 subjects for the metabolite profiling.
(§3) All samples were shipped to QPS LLC (Newark, Del.) and stored at −70° C. HPLC/tandem MS coupled with a radio flow-through detector (RFD) was used for metabolite profiling and identification for samples with sufficient levels of radioactivity.
(§4) HPLC fraction collection followed by counting with TopCount NXT™ was used for radioquantitation of plasma samples with sufficient levels of radioactivity. […] HPLC Method 1 was used for the analysis of pooled urine and fecal samples and individual plasma samples from different time points. […] HPLC Method 3 was used for pooled plasma samples.
The radioactivity in pooled urine and reconstituted solution was counted using LSC, and the reconstitution recovery calculated. […] Each pooled urine sample was lyophilized, the residue was reconstituted in water:ACN:FA (80:20:0.1, v/v/v), and the reconstituted sample was centrifuged at 15,000 rpm for 10 min before analysis.
(§5) The system for metabolite profiling and identification (HPLC/MS/RFD) consisted of a HTC PAL autosampler, a Surveyor HPLC pump, a LTQ linear ion trap mass spectrometer, and a β-RAM Model 3 RFD. The data obtained by mass spectrometry and RFD were processed by Xcalibur and Laura Lite 3 software, respectively. The HPLC eluent was split between the RFD and mass spectrometer with a ratio of 3 to 1. The following are the summary of the conditions for HPLC, mass spectrometer, and RFD.
(§6) Mass spectra (MS, MS/MS, and MS/MS/MS) of cabozantinib and its metabolite standards, provided by the Exelixis, Inc., were acquired on an ion trap mass spectrometer. Major fragment patterns were proposed. Identification of these metabolites was confirmed by matching mass spectra (MS and MS/MS) and retention times with authentic reference standards. For other unknown metabolites, molecular ions were searched on LC/MS chromatograms operating in full scan positive as well as negative ionization modes at the same retention times as those found on LC-radio chromatogram. Product ion mass spectra and high resolution mass spectra were then acquired for the corresponding molecular ions. Putative metabolite structures were proposed based on the analysis of their mass fragment patterns.
For the pooled urine samples, percent of total radioactivity in the pooled sample for each peak was calculated as the % of total non-parent in the pooled samples: % of total non-parent in the pooled samples=(total radioactivity of the peak/total radioactivity of the non-parent peaks)×100

[2] = molecular target: Flt-3 (Homo sapiens (Human), UniProt P36888); experiment: Kinase activity, EMD Millipore Kinase Profiler; type: biochemical; settings: for IC50: read-out: Flt-3 Std (IC50); for inhibition at 1 µM: read-out: Flt-3 percent inhibition
Flt-3, sequence (P36888 27-993): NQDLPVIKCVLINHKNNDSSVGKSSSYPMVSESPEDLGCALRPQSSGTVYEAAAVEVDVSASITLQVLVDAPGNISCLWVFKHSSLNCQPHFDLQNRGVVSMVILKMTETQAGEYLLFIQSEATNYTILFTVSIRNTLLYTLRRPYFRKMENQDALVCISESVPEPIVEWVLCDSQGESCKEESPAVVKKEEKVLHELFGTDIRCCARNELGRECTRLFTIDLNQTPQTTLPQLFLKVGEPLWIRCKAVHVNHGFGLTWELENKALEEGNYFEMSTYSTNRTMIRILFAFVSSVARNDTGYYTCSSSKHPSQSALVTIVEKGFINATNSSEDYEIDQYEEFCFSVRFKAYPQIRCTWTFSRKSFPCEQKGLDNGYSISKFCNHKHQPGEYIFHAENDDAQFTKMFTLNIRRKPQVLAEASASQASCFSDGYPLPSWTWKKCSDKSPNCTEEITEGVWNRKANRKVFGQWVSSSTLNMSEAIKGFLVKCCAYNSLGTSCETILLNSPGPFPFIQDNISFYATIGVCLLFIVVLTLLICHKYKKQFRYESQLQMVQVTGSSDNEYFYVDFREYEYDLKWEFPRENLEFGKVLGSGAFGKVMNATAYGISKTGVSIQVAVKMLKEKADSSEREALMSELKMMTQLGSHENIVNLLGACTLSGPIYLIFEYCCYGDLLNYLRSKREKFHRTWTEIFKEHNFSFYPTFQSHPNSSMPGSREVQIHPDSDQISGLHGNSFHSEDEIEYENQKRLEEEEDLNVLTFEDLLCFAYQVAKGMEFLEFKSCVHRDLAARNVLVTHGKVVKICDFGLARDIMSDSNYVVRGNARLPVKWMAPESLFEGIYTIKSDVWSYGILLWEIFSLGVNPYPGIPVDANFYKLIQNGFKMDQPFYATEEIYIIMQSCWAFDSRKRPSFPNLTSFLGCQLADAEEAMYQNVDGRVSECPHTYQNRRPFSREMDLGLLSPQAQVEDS

[3] = Metabolite profiling of human plasma after [14C] cabozantinib (mass balance study); type: in vivo; settings: single 175 mg oral dose of cabozantinib (L-malate salt) with [14C] cabozantinib, HPLC Method 1
Experimental: as §1, §2, §3, §4
For the investigation of co-eluting metabolites, nonradiolabeled plasma samples of six subjects were pooled, processed, and analyzed for pre-dose, 1-7, 8-96, and 120-336 hours post-dose. […] [^14C]
Radiolabeled and non-radiolabeled plasma samples were extracted employing the same method, using 1.0-2 mL plasma samples, depending on the volume available and radioactivity level of the samples. The supernatants were evaporated to dryness under a stream of nitrogen in an ambient water bath, and the residues were reconstituted in 0.35-0.5 mL of MeOH:ACN:water (10:20:70, v/v/v). The reconstituted samples were centrifuged at 15,000 rpm for 10 minutes. Aliquots of the supernatants were injected onto the HPLC system for analysis.
as §5
as §6, with “Product ion mass spectra and high resolution mass spectra were then acquired for the corresponding molecular ions. Putative metabolite structures were proposed based on the analysis of their mass fragment patterns.” left out
For plasma samples, percent of total radioactivity in the sample for each peak at each time point was calculated and converted to ng/mL.

[4] = molecular target: c-Met (Homo sapiens (Human), UniProt P08581); experiment: Kinase activity, EMD Millipore Kinase Profiler; type: biochemical; settings: for IC50: read-out: c-Met Std (IC50); for inhibition at 1 µM: read-out: c-Met percent inhibition
[5] = Metabolite profiling of human feces after [14C] cabozantinib (mass balance study); type: in vivo; settings: single 175 mg oral dose
Experimental: as §1, §2, §3, §4
The supernatants were dried under a nitrogen stream, and the residues were reconstituted in water:ACN:FA (80:20:0.1, v/v/v). The reconstituted samples were centrifuged at 15,000 rpm for 10 min before analysis.
as §5, §6
For the pooled fecal samples, percent of total radioactivity in the pooled sample for each peak was calculated as the percent of total non-parent plus parent in the pooled samples: % of total non-parent plus parent in the pooled samples=(total radioactivity of the peak/total radioactivity of the parent and non-parent peaks)×100

[6] = molecular target: Aurora B MP (Homo sapiens (Human), UniProt Q96GD4); experiment: Kinase activity, EMD Millipore Kinase Profiler; type: biochemical; settings: for IC50: read-out: Aurora B MP 8pt Std (IC50); for inhibition at 1 µM: read-out: Aurora B MP percent inhibition
[7] = molecular target: KDR (Homo sapiens (Human), UniProt P35968); experiment: Kinase activity, EMD Millipore Kinase Profiler; type: biochemical; settings: for IC50: read-out: KDR Std (IC50); for inhibition at 1 µM: read-out: KDR percent inhibition
KDR, sequence (P35968 20-1356): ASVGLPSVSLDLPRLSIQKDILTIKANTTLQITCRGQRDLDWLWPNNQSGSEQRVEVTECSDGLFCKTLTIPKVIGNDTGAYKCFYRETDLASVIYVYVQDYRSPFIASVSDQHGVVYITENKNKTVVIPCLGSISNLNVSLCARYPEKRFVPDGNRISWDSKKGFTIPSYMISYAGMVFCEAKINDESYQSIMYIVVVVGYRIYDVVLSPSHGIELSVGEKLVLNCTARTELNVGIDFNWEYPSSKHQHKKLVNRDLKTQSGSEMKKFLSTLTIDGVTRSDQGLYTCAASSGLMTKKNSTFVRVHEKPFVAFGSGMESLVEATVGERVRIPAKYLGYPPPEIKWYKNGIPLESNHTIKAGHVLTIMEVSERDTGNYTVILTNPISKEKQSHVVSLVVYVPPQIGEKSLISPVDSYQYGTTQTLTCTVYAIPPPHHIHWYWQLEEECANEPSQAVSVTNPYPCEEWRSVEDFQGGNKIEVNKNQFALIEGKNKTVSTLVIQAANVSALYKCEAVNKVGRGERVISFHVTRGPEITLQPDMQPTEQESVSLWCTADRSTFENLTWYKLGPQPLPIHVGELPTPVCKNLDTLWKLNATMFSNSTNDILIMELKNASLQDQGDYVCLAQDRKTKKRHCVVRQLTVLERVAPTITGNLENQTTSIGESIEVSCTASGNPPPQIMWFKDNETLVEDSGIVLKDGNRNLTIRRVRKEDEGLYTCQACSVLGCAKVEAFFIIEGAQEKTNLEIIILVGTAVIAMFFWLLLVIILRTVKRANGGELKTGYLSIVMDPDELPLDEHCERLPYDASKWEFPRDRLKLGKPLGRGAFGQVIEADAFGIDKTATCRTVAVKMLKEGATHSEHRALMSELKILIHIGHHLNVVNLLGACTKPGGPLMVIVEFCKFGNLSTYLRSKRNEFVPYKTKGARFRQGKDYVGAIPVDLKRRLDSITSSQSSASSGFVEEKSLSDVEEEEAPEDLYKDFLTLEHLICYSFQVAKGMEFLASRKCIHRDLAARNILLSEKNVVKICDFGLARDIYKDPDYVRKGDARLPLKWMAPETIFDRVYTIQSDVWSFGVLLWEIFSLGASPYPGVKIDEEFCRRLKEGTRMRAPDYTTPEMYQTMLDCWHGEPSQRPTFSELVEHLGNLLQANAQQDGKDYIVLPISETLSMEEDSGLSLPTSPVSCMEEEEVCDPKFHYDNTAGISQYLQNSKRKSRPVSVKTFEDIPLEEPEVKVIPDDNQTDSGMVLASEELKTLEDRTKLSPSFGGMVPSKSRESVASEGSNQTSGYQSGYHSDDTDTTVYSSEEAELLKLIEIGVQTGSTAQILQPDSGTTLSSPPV

[8] = molecular target: Flt-1 Alpha (Homo sapiens (Human), UniProt P17948); experiment: Kinase activity, EMD Millipore Kinase Profiler; settings: for inhibition at 1 µM: read-out: Flt-1 Alpha percent inhibition
Flt-1 Alpha, sequence (P17948 27-1338): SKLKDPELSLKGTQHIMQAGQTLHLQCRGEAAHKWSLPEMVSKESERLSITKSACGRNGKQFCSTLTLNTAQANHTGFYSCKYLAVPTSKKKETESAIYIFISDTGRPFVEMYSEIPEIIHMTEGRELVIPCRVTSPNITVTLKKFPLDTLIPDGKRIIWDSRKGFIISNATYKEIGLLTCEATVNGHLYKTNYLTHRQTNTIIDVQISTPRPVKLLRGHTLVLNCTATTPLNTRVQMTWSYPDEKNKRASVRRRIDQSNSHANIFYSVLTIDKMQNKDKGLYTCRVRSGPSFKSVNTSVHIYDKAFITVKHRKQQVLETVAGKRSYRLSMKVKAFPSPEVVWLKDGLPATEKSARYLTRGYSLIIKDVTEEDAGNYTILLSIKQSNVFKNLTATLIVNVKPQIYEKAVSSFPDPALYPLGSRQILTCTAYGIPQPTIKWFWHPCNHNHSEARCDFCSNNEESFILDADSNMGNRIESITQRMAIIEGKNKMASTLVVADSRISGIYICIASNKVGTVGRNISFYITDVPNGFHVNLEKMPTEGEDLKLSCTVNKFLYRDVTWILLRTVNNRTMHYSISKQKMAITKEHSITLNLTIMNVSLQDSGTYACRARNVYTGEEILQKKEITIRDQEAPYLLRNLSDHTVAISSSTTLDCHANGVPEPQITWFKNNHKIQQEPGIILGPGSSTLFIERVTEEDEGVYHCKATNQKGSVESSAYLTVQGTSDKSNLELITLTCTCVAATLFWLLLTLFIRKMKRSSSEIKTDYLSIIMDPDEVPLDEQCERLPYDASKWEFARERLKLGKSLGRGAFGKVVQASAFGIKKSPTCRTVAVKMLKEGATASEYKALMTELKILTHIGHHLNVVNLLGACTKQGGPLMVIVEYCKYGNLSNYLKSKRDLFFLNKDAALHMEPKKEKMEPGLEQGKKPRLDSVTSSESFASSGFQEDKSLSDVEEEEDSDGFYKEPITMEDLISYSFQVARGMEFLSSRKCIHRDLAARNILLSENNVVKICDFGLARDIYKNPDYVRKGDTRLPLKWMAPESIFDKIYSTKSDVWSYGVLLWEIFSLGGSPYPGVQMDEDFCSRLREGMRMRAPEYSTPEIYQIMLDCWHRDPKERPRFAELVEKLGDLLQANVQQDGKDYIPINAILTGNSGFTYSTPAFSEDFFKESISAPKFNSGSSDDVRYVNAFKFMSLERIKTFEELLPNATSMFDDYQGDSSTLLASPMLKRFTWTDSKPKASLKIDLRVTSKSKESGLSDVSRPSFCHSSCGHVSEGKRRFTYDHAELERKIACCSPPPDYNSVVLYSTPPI

[9] = molecular target: Flt-4 (Homo sapiens (Human), UniProt P35916); experiment: Kinase activity, EMD Millipore Kinase Profiler; type: biochemical; settings: for inhibition at 1 µM: read-out: Flt-4 percent inhibition
Flt-4, sequence (P35916 25-1363): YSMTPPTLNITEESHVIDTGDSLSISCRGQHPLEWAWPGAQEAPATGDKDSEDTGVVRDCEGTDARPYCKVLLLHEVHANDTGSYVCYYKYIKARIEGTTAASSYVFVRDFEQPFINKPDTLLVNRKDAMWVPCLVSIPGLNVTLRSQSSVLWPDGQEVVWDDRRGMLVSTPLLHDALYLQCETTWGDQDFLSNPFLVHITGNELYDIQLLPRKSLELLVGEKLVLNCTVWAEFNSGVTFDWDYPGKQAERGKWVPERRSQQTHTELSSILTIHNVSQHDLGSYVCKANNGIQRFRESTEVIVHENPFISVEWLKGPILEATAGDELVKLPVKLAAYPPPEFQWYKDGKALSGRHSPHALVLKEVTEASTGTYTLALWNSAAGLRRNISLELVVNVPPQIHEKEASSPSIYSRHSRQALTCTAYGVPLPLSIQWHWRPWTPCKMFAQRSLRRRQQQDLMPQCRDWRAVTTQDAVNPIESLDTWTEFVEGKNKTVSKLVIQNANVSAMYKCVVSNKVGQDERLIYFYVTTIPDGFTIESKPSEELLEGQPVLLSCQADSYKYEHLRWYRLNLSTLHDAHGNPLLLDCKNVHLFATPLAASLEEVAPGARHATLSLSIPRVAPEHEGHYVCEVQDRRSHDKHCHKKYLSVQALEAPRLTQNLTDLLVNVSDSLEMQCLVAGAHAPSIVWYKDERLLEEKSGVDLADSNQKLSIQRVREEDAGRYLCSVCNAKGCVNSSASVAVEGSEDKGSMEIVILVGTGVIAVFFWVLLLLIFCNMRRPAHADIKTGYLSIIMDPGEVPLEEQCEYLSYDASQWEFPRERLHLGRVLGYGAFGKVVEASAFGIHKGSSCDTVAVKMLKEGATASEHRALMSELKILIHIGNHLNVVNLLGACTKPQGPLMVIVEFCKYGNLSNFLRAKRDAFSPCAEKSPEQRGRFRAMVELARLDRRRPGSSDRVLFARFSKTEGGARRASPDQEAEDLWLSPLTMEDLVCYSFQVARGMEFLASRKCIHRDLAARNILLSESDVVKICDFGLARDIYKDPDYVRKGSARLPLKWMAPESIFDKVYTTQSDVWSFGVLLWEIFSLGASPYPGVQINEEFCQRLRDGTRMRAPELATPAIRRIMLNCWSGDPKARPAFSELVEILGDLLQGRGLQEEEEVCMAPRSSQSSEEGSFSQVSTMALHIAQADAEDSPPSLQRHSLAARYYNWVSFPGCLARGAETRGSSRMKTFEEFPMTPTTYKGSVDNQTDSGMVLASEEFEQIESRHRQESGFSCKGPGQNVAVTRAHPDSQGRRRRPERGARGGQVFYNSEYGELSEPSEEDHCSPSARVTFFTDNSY

[10] = molecular target: RET (Homo sapiens (Human), UniProt P07949); experiment: Kinase activity, EMD Millipore Kinase Profiler; type: biochemical; settings: read-out: RET percent inhibition

IC50 [2]: < 50 nM
IC50 [8]: 500 to 5000 nM
IC50 [4]: < 50 nM
presence in pooled fecal sample ([5]; 0-72 hours post dose): observed
presence in pooled fecal sample ([5]; 144-192 hours post dose): observed
IC50 [6]: 50 to 500 nM
IC50 [7]: < 50 nM
SMILES: COc1cc2nccc(Oc3ccc(NC(=O)C4(C(=O)Nc5ccc(F)cc5O)CC4)cc3)c2cc1OC [Compound 16]

presence in urine samples ([1]; human urine samples, all intervals): not observed
IC50 ([9]; read-out: Flt-4 Std (IC50)): < 50 nM
peak on plasma radio-chromatograms [3]: major peaks
presence in pooled fecal sample ([5]; 0-72 hours post dose): observed
SMILES: COc1cc2nccc(Oc3ccc(NC(=O)C4(C(=O)Nc5ccc(F)cc5)CC4)cc3)c2cc1OC [Cabozantinib, N-(4-{[6,7-bis(methyloxy)quinolin-4-yl]oxy}phenyl)-N′-(4-fluorophenyl)cyclopropane-1,1-dicarboxamide, reference compound]

IC50 [2]: < 50 nM
IC50 [8]: 500 to 5000 nM
IC50 [4]: < 50 nM
IC50 [6]: 50 to 500 nM
IC50 [7]: < 50 nM
SMILES: COc1cc2nccc(Oc3ccc(NC(=O)C4(C(=O)Nc5ccc(F)c(O)c5)CC4)cc3)c2cc1OC [Compound 13]

inhibition at 1 µM [9]: ≥ 75%
inhibition at 1 µM [10]: ≥ 75%
inhibition at 1 µM [2]: ≥ 50%
peak on plasma radio-chromatograms [3]: major peaks
inhibition at 1 µM [8]: ≥ 50%
inhibition at 1 µM [4]: ≥ 75%
inhibition at 1 µM [6]: ≥ 75%
inhibition at 1 µM [7]: ≤ 25%
SMILES: COc1cc2nccc(Oc3ccc(NC(=O)C4(C(=O)Nc5ccc(F)cc5OS(=O)(=O)O)CC4)cc3)c2cc1OC [Compound 9]

Second part, the molecule before the results:

SMILES: COc1cc2nccc(Oc3ccc(NC(=O)C4(C(=O)O)CC4)cc3)c2cc1OC [Compound 7, 1-[4-(6,7-Dimethoxy-quinolin-4-yloxy)-phenylcarbamoyl]-cyclopropane carboxylic acid]
presence in pooled urine sample ([1]; 0-72 hours post dose): observed
presence in pooled urine sample ([1]; 144-192 hours post dose): observed
IC50 [2]: 500 to 5000 nM
peak on plasma radio-chromatograms [3]: one of the minor peaks
IC50 [4]: > 5000 nM
presence in pooled fecal sample ([5]; 0-72 hours post dose): observed
presence in pooled fecal sample ([5]; 144-192 hours post dose): observed
IC50 [6]: 500 to 5000 nM
IC50 [7]: > 5000 nM

SMILES: COc1cc2nccc(Oc3ccc(NC(=O)C4(C(=O)O)CC4)cc3)c2cc1OS(=O)(=O)O [Compound 2a]
inhibition at 1 µM [9]: ≥ 25%
inhibition at 1 µM [10]: ≤ 25%
inhibition at 1 µM [2]: ≤ 25%
inhibition at 1 µM [8]: ≤ 25%
inhibition at 1 µM [4]: ≥ 50%
inhibition at 1 µM [6]: ≤ 25%
inhibition at 1 µM [7]: ≤ 25%

SMILES: COc1cc2c(Oc3ccc(NC(=O)C4(C(=O)Nc5ccc(F)cc5)CC4)cc3)cc[n+]([O-])c2cc1OC [Compound 19]
presence in pooled urine sample ([1]; 0-72 hours post dose): observed
peak on plasma radio-chromatograms [3]: major peaks
